From patent US12084472B2 (Ardelyx, Inc., priority 2015, dated 2024)

Target: T1, human TGR5 (Homo sapiens, UniProt Q8TDU6)
T1 construct: expressed in transfected cells; host or cells: HEK293
T1 sequence (Q8TDU6 1-330): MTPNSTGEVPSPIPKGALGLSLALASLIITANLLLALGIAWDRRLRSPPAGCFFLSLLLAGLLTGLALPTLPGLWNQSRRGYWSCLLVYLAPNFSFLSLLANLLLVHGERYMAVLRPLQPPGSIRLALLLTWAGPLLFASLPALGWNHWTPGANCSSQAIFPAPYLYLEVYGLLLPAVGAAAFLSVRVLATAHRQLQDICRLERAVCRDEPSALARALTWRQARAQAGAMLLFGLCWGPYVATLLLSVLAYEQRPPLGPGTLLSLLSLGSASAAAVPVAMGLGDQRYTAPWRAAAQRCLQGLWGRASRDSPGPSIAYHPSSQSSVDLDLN
Assay: Cell-based TGR5 assay (cAMP generation, HTRF)
Details: HEK293 cells stably transfected with human TGR5; cAMP by HTRF; 30 minutes at 37° C.; read-out: pEC50 Human TGR5 (converted)
Outline: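 Read-out was HTRF detection of cAMP, converted to concentration via a standard curve and fitted (3-parameter logistic) for pEC50 and maximal response. Agonist stimulation used HEK293 cells stably transfected with human TGR5, incubated 30 min at 37° C in IBMX-containing buffer at 0.05 nM to 10 μM compound.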

Structure (SMILES) | EC50 [nM]
O=C(CCC1CCN(S(=O)(=O)c2ccc(Cl)c(COC3(c4cnccc4-c4ccccc4OC4CC4)CC3)c2)C1)NC[C@H](O)[C@@H](O)[C@H](O)[C@H](O)CO (stereo partly drawn) [Compound I-451, 3-{1-[4-chloro-3-({-[4-(2-cyclopropoxyphenyl)pyridin-3-yl]cyclopropoxy}methyl)benzenesulfonyl]pyrrolidin-3-yl}-N-[(2S,3R,4R,5R)-2,3,4,5,6-pentahydroxyhexyl]propanamide] | < 100
CN1C[C@@H]2C[C@H]1CN2S(=O)(=O)c1ccc(Cl)c(COC2(c3cnccc3-c3ccccc3OC3CC3)CC2)c1 [Compound I-777, (1S,4S)-2-((4-chloro-3-((1-(4-(2-cyclopropoxyphenyl)pyridin-3-yl)cyclopropoxy)methyl)phenyl)sulfonyl)-5-methyl-2,5-diazabicyclo[2.2.1]heptane] | 126 to 1000
Cc1cc(COC2(c3cnccc3-c3ccccc3OC3COC3)CC2)c(Cl)cc1CCCCNC(=O)NC[C@H](O)[C@@H](O)[C@H](O)[C@H](O)CO (stereo in doubt) [Compound I-190, 1-(4-{5-chloro-2-methyl-4-[(1-{4-[2-(oxetan-3-yloxy)phenyl]pyridin-3-yl}cyclopropoxy)methyl]phenyl}butyl)-3-[(2S,3R,4R,5R)-2,3,4,5,6-pentahydroxyhexyl]urea] | < 100
Cc1ccc(Cl)c(CNC2(c3cnccc3-c3ccccc3OC3CC3)CC2)n1 [Compound I-35, N-[(3-chloro-6-methylpyridin-2-yl)methyl]-1-[4-(2-cyclopropoxyphenyl)pyridin-3-yl]cyclopropan-1-amine] | < 100
O=C(O)CCCCc1cc(Cl)c(COC2(c3cnccc3-c3ccccc3OC3CC3)CC2)cc1Cl [Compound I-157, 5-[2,5-dichloro-4-({1-[4-(2-cyclopropoxyphenyl)pyridin-3-yl]cyclopropoxy}methyl)phenyl]pentanoic acid] | < 100
Cc1ccc(CCCCNC(=O)NC[C@H](O)[C@@H](O)[C@H](O)[C@H](O)CO)nc1CNC1(c2cnccc2-c2ccccc2OC2CC2)CC1 [Compound I-705] | 126 to 1000

Results, then the molecule that gave them:

EC50 [nM] | Structure (SMILES)
126 to 1000 | O=C1NCCN1CCN(CCCSc1ccc(Cl)c(COC2(c3cnccc3-c3ccccc3OC3CC3)CC2)c1)C(=O)[C@@H](O)[C@@H](O)[C@H](O)[C@@H](O)CO [Compound I-543, (2S,3S,4R,5S)-N-(3-{[4-chloro-3-({1-[4-(2-cyclopropoxyphenyl)pyridin-3-yl]cyclopropoxy}methyl)phenyl]sulfanyl}propyl)-2,3,4,5,6-pentahydroxy-N-[2-(2-oxoimidazolidin-1-yl)ethyl]hexanamide]
126 to 1000 | O=C(CCCSc1ccc(Cl)c(COC2(c3cnccc3-c3ccccc3OC3CC3)CC2)c1)N(Cc1ccccc1)C[C@H](O)[C@@H](O)[C@H](O)[C@H](O)CO [Compound I-667, N-benzyl-4-{[4-chloro-3-({1-[4-(2-cyclopropoxyphenyl)pyridin-3-yl]cyclopropoxy}methyl)phenyl]sulfanyl}-N-[(2S,3R,4R,5R)-2,3,4,5,6-pentahydroxyhexyl]butanamide]
< 100 | O=C(NCCCCSc1ccc(Cl)c(COC2(c3cnccc3-c3ccccc3OC3CC3)CC2)c1)N[C@H]1CC[C@@H](NC(=O)NC[C@H](O)[C@@H](O)[C@H](O)[C@H](O)CO)CC1 [Compound I-635, 1-(4-{[4-chloro-3-({1-[4-(2-cyclopropoxyphenyl)pyridin-3-yl]cyclopropoxy}methyl)phenyl]sulfanyl}butyl)-3-[(1s,4s)-4-({[(2S,3R,4R,5R)-2,3,4,5,6-pentahydroxyhexyl]carbamoyl}amino)cyclohexyl]urea]
< 100 | O=C([C@@H](O)[C@@H](O)[C@H](O)[C@@H](O)CO)N(CCCCCO)CCCCCSc1ccc(Cl)c(COC2(c3cnccc3-c3ccccc3OC3CC3)CC2)c1 [Compound I-606, (2S,3S,4R,5S)-N-(5-{[4-chloro-3-({1-[4-(2-cyclopropoxyphenyl)pyridin-3-yl]cyclopropoxy}methyl)phenyl]sulfanyl}pentyl)-2,3,4,5,6-pentahydroxy-N-(5-hydroxypentyl)hexanamide]
